For one experiment, the system named is c-Jun/JNK complex. The note with it: in vitro and in intact cells; Holzberg et al. 2003; cited from earlier work.
The test system of experiment [1] is models of cochlear insult. Conditions: acute noise trauma, acute labyrinthitis, aminoglycoside ototoxicity, bacterial infection, cochlear ischemia, cochlear implantation trauma; cited from earlier work.
The subject of a further experiment is ASNHL-related tinnitus. In words: Double-blind, randomized, placebo-controlled phase II study of AM-111 in ASNHL and associated tinnitus. The experiment is classed as in vivo, human. Conditions: for Number of Subjects with Tinnitus/Number of Subjects with Observation (%): Safety Population; for Complete ASNHL-Related Tinnitus Remission in the Treated Ear, Frequency (%): time point Overall, mITT. The procedure: A double-blind, randomized, placebo-controlled phase II study was conducted to evaluate the efficacy and safety of AM-111 in treating ASNHL and associated tinnitus. Eligible participants were aged 18 to 60 years and suffered from ASNHL (unilateral idiopathic sudden sensorineural hearing loss (ISSNHL), uni- or bilateral acute acoustic trauma (AAT)) with hearing loss of at least 30 dB and onset not more than 48 hours previously. The hearing loss was determined against a reference value: mean hearing threshold at the 3 most affected contiguous test frequencies (pure tone average, PTA) less corresponding mean hearing threshold of the contralateral ear (Plontke et al., 2007). In case of previously asymmetric hearing or bilateral ASNHL, thresholds from a previous audiogram or ISO-7029; 2000 norm values served as reference. The PTA frequencies determined at baseline remained fixed for all evaluations.
Exclusion criteria included history of Meniere's disease, autoimmune or radiation induced hearing […] loss, endolymphatic hydrops or fluctuating hearing loss, suspected perilymph fistula, membrane rupture or retrocochlear lesion, barotrauma, air-bone gap >20 dB in 3 contiguous frequencies, previous ASNHL incident within the past 6 weeks, and acute or chronic otitis media or otitis externa. Women who were breast feeding, pregnant or who planned a pregnancy during the study, or women of childbearing potential who declared being unwilling or unable to practice an effective method of […] contraception were excluded. Written informed consent was obtained from each patient prior to the performance of any study-specific procedures.
At baseline (Day 0), study participants were randomized to receive AM-111 (0.4 or 2.0 mg/mL) or placebo at a 2:1 ratio. The study consisted of a baseline assessment and 4 follow-up visits on Days 3, 7, 30, and 90. Baseline assessments included a general physical examination, vital signs, and a urine pregnancy test for women of childbearing age. At each study visit pure tone hearing thresholds, speech discrimination at 60 and 80 dB, and subjective tinnitus loudness were determined. Those patients reporting tinnitus were asked to rate its loudness “right now” on a numerical scale ranging from 0 (no tinnitus) to 10 (extremely loud).
Approximately 0.25 mL of the study drug was administered on Day 0 by intratympanic (i.t.) injection under local anesthesia through a small myringotomy with the patient's head placed in a position tilted 45° towards the unaffected ear. Patients remained in their reclined or supine position for approximately 30 minutes to allow for diffusion of the active substance into the cochlea. In case of bilateral AAT, only the worst affected ear was treated. Subjects whose PTA recovered <10 dB from baseline to Day 7 were given the option to receive oral prednisolone 50 mg (Ratiopharm, Ulm, Germany) b.i.d. for 5 days.
The sample size was determined based on an expected effect size of 0.6, a two-sided type I error rate of 5% and a statistical power of 80%.
Efficacy analyses were primarily performed on a modified “Intention to treat” (mITT) analysis set (treated patients with PTA measured on Day 3±1 or Day 7+4 days at most) and secondarily on the “Per Protocol” (PP) analysis set. The “Safety Population” analysis set included all patients who received an injection of the study medication. Random imputation was performed for missing PTA values at Days 7 and 30, and missing speech discrimination score (SDS) values at Day 7 based on the preceding value and the mean change observed in the respective treatment group (mITT set).
For continuous efficacy endpoints, analysis of covariance (ANCOVA) models were used including treatment group and initial frequency range as class effects, and baseline values of the respective endpoint as covariate. For the complete recovery rate, a logistic regression model was applied including treatment, initial frequency range, and baseline hearing loss as predictor variables. […]

Where “and” joins values, the source holds several entries; their conditions need not be identical. Equal entries are not always repeated. Where no end group is shown, it is not given here. [ ]: non-standard residue; d: D form.

As to “Ac-YGRKKRRQRRR-gaba-ILKQSMTLNLADPVGSLKPHLRAKN-NH2 (YGRKKRRQRRRXILKQSMTLNLADPVGSLKPHLRAKN; N-acetyl; GABA spacer; C-terminal amide) [SEQ ID NO: 45, cell-permeable 37-mer peptide of human c-Jun delta domain and HIV-TAT protein transduction domain fused by a GABA spacer]”, in the experiment on c-Jun/JNK complex, the “Disruption of c-Jun/JNK complex formation and subsequent phosphorylation and activation of c-Jun by JNK” value was “specifically disrupt c-Jun/JNK complex formation”.
For “AM-111: 31-amino acid cell-permeable peptide (SEQ ID NO: 2, all-D), islet-brain 1 effector domain fused to TAT, formulated in a biocompatible hyaluronic acid gel ([dD][dQ][dS][dR][dP][dV][dQ][dP][dF][dL][dN][dL][dT][dT][dP][dR][dK][dP][dR][dP][dP][dR][dR][dR][dQ][dR][dR][dK][dK][dR]G)”, in experiment [1], the “Otoprotection in models of cochlear insult” value was “otoprotective”. Further, the “Number of Subjects with Tinnitus/Number of Subjects with Observation (%)” value (“Number of Subjects with Tinnitus/Number … (%)” below) in the experiment with ASNHL-related tinnitus (AM-111 0.4 mg/mL single i.t. injection, Day 0, after study drug, 53/56 subjects with ASNHL-related tinnitus) was 53/56 (94.6) %; in the experiment on ASNHL-related tinnitus (AM-111 0.4 mg/mL single i.t. injection, Day 3, 51/56 subjects), 51/56 (91.1) %; in the experiment with ASNHL-related tinnitus (AM-111 0.4 mg/mL single i.t. injection, Day 7, 42/55 subjects) it was 42/55 (76.4) %; in the experiment with ASNHL-related tinnitus (AM-111 0.4 mg/mL single i.t. injection, Day 30, 26/55 subjects), 26/55 (47.3) %; in the experiment on ASNHL-related tinnitus (AM-111 0.4 mg/mL single i.t. injection, Day 90, 19/50 subjects, placebo 56.0%), 38.0% and 19/50 (38.0) %; with ASNHL-related tinnitus (AM-111 2.0 mg/mL single i.t. injection, Day 0, after study drug, 58/59 subjects) it was 58/59 (98.3) %. Further, the “Number of Subjects with Tinnitus/Number … (%)” value was 59/59 (100) % in the experiment on ASNHL-related tinnitus (AM-111 2.0 mg/mL single i.t. injection, Day 3, 59/59 subjects); 51/58 (87.9) % in the experiment with ASNHL-related tinnitus (AM-111 2.0 mg/mL single i.t. injection, Day 7, 51/58 subjects); 35/56 (62.5) % with ASNHL-related tinnitus (AM-111 2.0 mg/mL single i.t. injection, Day 30, 35/56 subjects); 51.9% and 28/54 (51.9) % in the experiment on ASNHL-related tinnitus (AM-111 2.0 mg/mL single i.t. injection, Day 90, 28/54 subjects, placebo 56.0%); 111/115 (96.5) % with ASNHL-related tinnitus (AM-111 Total (0.4 and 2.0 mg/mL groups), Day 0, after study drug, 111/115 subjects); 110/115 (95.7) % in the experiment with ASNHL-related tinnitus (AM-111 Total (0.4 and 2.0 mg/mL groups), Day 3, 110/115 subjects). Also, the “Number of Subjects with Tinnitus/Number … (%)” value with ASNHL-related tinnitus (AM-111 Total (0.4 and 2.0 mg/mL groups), Day 7, 93/113 subjects) was 93/113 (82.3) %; in the experiment with ASNHL-related tinnitus (AM-111 Total (0.4 and 2.0 mg/mL groups), Day 30, 61/111 subjects), 61/111 (55.0) %; in the experiment on ASNHL-related tinnitus (AM-111 Total (0.4 and 2.0 mg/mL groups), Day 90, 47/104 subjects), 47/104 (45.2) %. The “Complete ASNHL-Related Tinnitus Remission in the Treated Ear, Frequency (%)” value with ASNHL-related tinnitus (AM-111 0.4 mg/mL, All Subjects N = 50 (35 subjects), placebo 54.9%, p=0.151) is 35 (70.0%); with ASNHL-related tinnitus (AM-111 0.4 mg/mL, Mild to Moderate hearing loss subgroup N = 25 (21 subjects), placebo 78.6%, p=0.732) it was 21 (84.0%); in the experiment with ASNHL-related tinnitus (AM-111 2.0 mg/mL, All Subjects N = 56 (31 subjects), placebo 54.9%, p=1.000) it was 31 (55.4%); in the experiment on ASNHL-related tinnitus (AM-111 2.0 mg/mL, Mild to Moderate hearing loss subgroup N = 27 (17 subjects), placebo 78.6%, p=0.245), 17 (63.0%). Moreover, in the experiment on ASNHL-related tinnitus (subgroup mild to moderate hearing loss, Fisher's Exact Test), the “Complete tinnitus remission, AM-111 treatment groups versus placebo” value is recorded as “no statistically significant differences”.
